Key:
[1] = cited from earlier work
[2] = system: NO biomarker NO2 in saliva; assay: Salivary NO biomarker (NO2) test strips after dosing of the formulations; format: in vivo, human; settings: pharmacodynamic studies in this laboratory
Protocol: Over three days, subjects, with normal plasma concentrations of ADMA, were instructed to consume the 10 g of either F1 or F2 with 500 mL of water subsequent to developing the first, pre-dose NO strip. At post-dosing times 30, 60 and 90 minutes, NO strips were again developed for all subjects. One subject was given a 2× dose (20 g) of both formulations over the experimental period. The salivary NO strips, which detect salivary NO2, were nitric Oxide Test Strips (Berkeley Test, Berkeley, Calif.). Color development of NO strips was quantitated using densitometry. Means and 95% confidence intervals were computed using Excel [Microsoft, Redman, Wash.].
The assay of nitrite in saliva and nitrate in Test Formulation 3 (F3) was conducted as described in Example 1. Color development of NO strips was quantitated as described in Example 1. Means and 95% confidence intervals were computed as described in Example 1.
During the morning period, subjects (n=5), with normal plasma concentrations of ADMA, were instructed to consume 5 mL of the F3 with 500 mL of water subsequent to developing the first, pre-dose NO strip. At post-dosing times 30, 60 and 90 minutes, NO strips were again developed for all subjects.

Myeloperoxidase (MPO) = molecular target: T1, Myeloperoxidase (MPO) (Homo sapiens, UniProt P05164); assay: Myeloperoxidase Inhibitor Screening Assay (chlorination, hypochlorous acid production); format: biochemical; settings: MPO inhibition; parenthetic values are 95% confidence interval; read-out: Observed IC50 (converted)
T1 sequence (P05164 49-745): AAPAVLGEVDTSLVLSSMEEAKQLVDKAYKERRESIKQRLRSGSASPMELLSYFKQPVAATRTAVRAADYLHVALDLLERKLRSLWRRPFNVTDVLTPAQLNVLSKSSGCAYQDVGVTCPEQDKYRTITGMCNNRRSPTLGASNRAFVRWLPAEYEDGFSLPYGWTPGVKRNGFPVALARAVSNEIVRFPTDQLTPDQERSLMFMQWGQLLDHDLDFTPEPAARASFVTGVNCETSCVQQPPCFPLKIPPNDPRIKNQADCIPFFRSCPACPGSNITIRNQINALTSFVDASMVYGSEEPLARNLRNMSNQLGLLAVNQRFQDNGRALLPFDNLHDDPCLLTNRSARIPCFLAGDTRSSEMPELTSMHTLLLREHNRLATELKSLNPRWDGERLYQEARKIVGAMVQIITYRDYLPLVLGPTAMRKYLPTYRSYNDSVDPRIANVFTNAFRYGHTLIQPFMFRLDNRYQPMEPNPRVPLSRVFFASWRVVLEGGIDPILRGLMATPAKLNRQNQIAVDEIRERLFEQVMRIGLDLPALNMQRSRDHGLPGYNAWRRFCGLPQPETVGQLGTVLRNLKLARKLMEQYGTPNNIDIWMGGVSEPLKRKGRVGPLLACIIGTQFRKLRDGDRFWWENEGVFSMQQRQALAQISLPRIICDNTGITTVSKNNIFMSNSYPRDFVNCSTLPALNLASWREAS
Protocol: Formulations 1 and 2, as described in Table 2 above, were tested for their synergistic activity. Additional samples of F1 and F2 were prepared at an initial concentration of 100 mg/mL in an acetone:water (1:1) solution, sonicated in an ice bath for 60 min with vortexing every 10 min, and centrifuged at 3000 rpm at ambient temperature for 5 min. The supernatant liquid was transferred to fresh tubes and centrifuged again at 13,300 rpm at ambient temperature for 10 min. This final supernatant fraction was transferred to fresh tubes and stored at −80° C. until assayed.
The acetone used in this example was obtained through Fisher Chemical Co (Pittsburgh, Pa.) and was the highest purity available. […]
The chlorination assay utilizes the non-fluorescent 2-[6-(4-aminophenoxy)-3-oxo-3H-xanthen-9-yl]-benzoic acid (APF), which is selectively cleaved by hypochlorite to yield the highly fluorescent compound fluorescein. Fluorescein fluorescence was analyzed with an excitation wavelength of 480-495 nm and an emission wavelength of 515-525 nm using a Cytation5 microplate fluorescence reader (Bio Tek Instruments, Winooski, Vt.).
The median inhibitory concentration (IC50) for the inhibition of MPO activity was calculated using CalcuSyn (BIOSOFT, Ferguson, Mo.). […]
Synergy of test components was then quantified using the combination index (CI) parameter. […]

Which bioavailability ([1]; dietary NO3) does the source give for `O=[N+]([O-])O` [NO3] here?
The bioavailability was 100%.

And the half-life in plasma ([1]; orally consumed NO3)?
Its half-life in plasma is “about 5 hours”.

What about the “time to peak plasma concentration” value ([1]; orally consumed NO3) of the same compound?
The value was “about 1 hour”.

What about the “NO3 content that does not produce a detectable increase in NO strip color development” value [2] of the same compound?
Its value is “below 12.5 mg NO3/dose”.

Which IC50 (Myeloperoxidase (MPO)) does the source give for `N=C(N)NCCC[C@H](N)C(=O)O` [L-Arginine] here?
Its IC50 is 46.4 µM.

With `NC(=O)NCCC[C@H](N)C(=O)O` [L-Citrulline] as the compound, how does the IC50 (Myeloperoxidase (MPO)) read?
The IC50 was 103 µM.

Reference: patent US11241406B2, “Compositions and methods for acutley raising nitric oxide levels” (Nature's Sunshine Products, Inc., priority 2015, dated 2022)
